Experimental data from patent US20030191144A1, “Compounds, compositions and methods for modulating beta-amyloid production” (Active Pass Pharmaceuticals, Inc., priority 2001, published 2003).

What was measured:
[1] = system: Aβ42 production and/or release from SM-4 cells; test: Aβ42 ELISA of culture media from SM-4 cells; format: cell-based; settings: 16 hrs, p<0.001
Description: Cell Lines and Pharmacological Treatments. 293 EBNA cells (InVitrogen, Carlsbad, Calif.) stably transfected with Swedish mutant β-Amyloid Precursor Protein -695 (SM4 cells) were routinely maintained in DMEM supplemented with sodium pyruvate (1 mM) and 10% fetal bovine serum. Cells were seeded into poly-D-Lysine (SIGMA) coated 6-well plates at a density of 5-7×10^5 cells per well. Subsequently, the cells were rinsed in 1 ml of PBS and treated with 10-500 μM of pirinixic acid in serum-free/phenol red-free DMEM for 16 hours.
(§1) Aβ Detection and Standardization. After the pharmacological treatment, the exposure media was collected and supplemented with 10% sample treatment buffer (40 mM sodium phosphate (pH 7.4), 40 mM triethanolamine, 0.1% Triton X-100, 200 mM NaCl, 2 mM EGTA, 0.1% Sodium azide), and assayed for either Aβ40 or Aβ42 by a calorimetric ELISA as per the manufacturer's protocol (Biosource International Inc, California). The cells were lysed in 0.1% Triton X-100 in PBS supplemented with 5 μM propridium iodide (Molecular Probes, Eugene, Oreg.) and incubated at 37° C. for 30 minutes prior to measuring fluorescence. Aβ40 and Aβ42 were standardized against propridium iodide fluorescence as a measure of total cell number. […]
as §1, with “After” for “Aβ Detection and Standardization. After”
After the pharmacological treatment, the exposure media was collected and supplemented with 10% sample treatment buffer (40 mM sodium phosphate (pH 7.4), 40 mM triethanolamine, 0.1% Triton X-100, 200 mM NaCl, 2 mM EGTA, 0.1% Sodium azide), and assayed for either Aβ40 or Aβ42 by a colorimetric ELISA as per the manufacturer's protocol (Biosource International Inc, California). The cells were lysed in 0.1% Triton X-100 in PBS supplemented with 5 μM propridium iodide (Molecular Probes, Eugene, Oreg.) and incubated at 37° C. for 30 minutes prior to measuring fluorescence. Aβ40 and Aβ42 were standardized against propridium iodide fluorescence as a measure of total cell number.

[2] = system: Aβ40 production and/or release from SM-4 cells; test: Aβ40 ELISA of culture media from SM-4 cells; format: cell-based; settings: 16 hrs
Description: Cell Lines and Pharmacological Treatments. 293 EBNA cells (InVitrogen, Carlsbad, Calif.) stably transfected with Swedish mutant β-Amyloid Precursor Protein -695 (SM4 cells) were routinely maintained in DMEM supplemented with sodium pyruvate (1 mM) and 10% fetal bovine serum. Cells were seeded into poly-D-Lysine (SIGMA) coated 6-well plates at a density of 5-7×10^5 cells per well. Subsequently, the cells were rinsed in 1 ml of PBS and treated with 10-500 μM of pirinixic acid in serum-free/phenol red-free DMEM for 16 hours. Aβ Detection and Standardization. After the pharmacological treatment, the exposure media was collected and supplemented with 10% sample treatment buffer (40 mM sodium phosphate (pH 7.4), 40 mM triethanolamine, 0.1% Triton X-100, 200 mM NaCl, 2 mM EGTA, 0.1% Sodium azide), and assayed for either Aβ40 or Aβ42 by a calorimetric ELISA as per the manufacturer's protocol (Biosource International Inc, California). The cells were lysed in 0.1% Triton X-100 in PBS supplemented with 5 μM propridium iodide (Molecular Probes, Eugene, Oreg.) and incubated at 37° C. for 30 minutes prior to measuring fluorescence. Aβ40 and Aβ42 were standardized against propridium iodide fluorescence as a measure of total cell number. 293 EBNA cells (InVitrogen, Carlsbad, Calif.) stably transfected with Swedish mutant β-Amyloid Precursor Protein -695 (SM4 cells) were routinely maintained in DMEM supplemented with sodium pyruvate (1 mM) and 10% fetal bovine serum. […] The cells were lysed in 0.1% Triton X-100 in PBS supplemented with 5 μM propridium iodide (Molecular Probes, Eugene, Oreg.) and incubated at 37° C. for 30 minutes prior to measuring fluorescence. Aβ40 and Aβ42 were standardized against propridium iodide fluorescence as a measure of total cell number. […] The cells were lysed in 0.1% Triton X-100 in PBS supplemented with 5 μM propridium iodide (Molecular Probes, Eugene, Oreg.) and incubated at 37° C. for 30 minutes prior to measuring fluorescence. Aβ40 and Aβ42 were standardized against propridium iodide fluorescence as a measure of total cell number.

SMILES: CCN(c1cc(Cl)nc(SCC(=O)O)n1)c1cccc(C)c1C [Compound 2, {4-chloro-6-[(2,3-dimethylphenyl)ethylamino]pyrimidin-2-yl-sulfanyl}acetic Acid]
- inhibition of Aβ42 secretion ([1]; 100 μM): 80%
- effect on Aβ40 ([2]; 5-100 μM): without altering Aβ40

SMILES: Cc1cccc(N(C)c2cc(Cl)nc(SCC(=O)O)n2)c1C [Compound 1]
- inhibition of Aβ42 secretion ([1]; 300 μM): 66%
- effect on Aβ40 ([2]; 50-300 μM): without altering Aβ40
